Data taken from ChEMBL document CHEMBL1201862, “PubChem BioAssay data set” (2004).
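Five concentrations, 48 hours, 96-well plates. Abbreviation: GI50, concentration required for 50% inhibition of growth.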 Activity calls are given as the source filed them. Rule as the data show it: active = GI50 up to about 1.1 µM and inactive = higher.

Legend:
Assay in all cases: NCI anticancer screen, dose series, 48 h
SF-295 = system: SF-295
HL-60 = system: HL-60
ACHN = system: ACHN
SNB-78 = system: SNB-78
SF-539 = system: SF-539
UACC-257 = system: UACC-257
K562 = system: K562
SN12C = system: SN12C
EKVX = system: EKVX
NCI-H23 = system: NCI-H23
SK-MEL-28 = system: SK-MEL-28
SK-OV-3 = system: SK-OV-3
A549 = system: A549
A498 = system: A498
COLO 205 = system: COLO 205

Measured: GI50

CN(C)c1[se]nc2c1c(=O)n(C)c(=O)n2C
inactive: SF-295 > 100 µM | HL-60 > 100 µM | ACHN > 100 µM | SNB-78 > 100 µM | SF-539 > 100 µM | UACC-257 > 100 µM | K562 > 100 µM | SN12C > 100 µM | EKVX > 100 µM | NCI-H23 > 100 µM | SK-MEL-28 > 100 µM | SK-OV-3 > 100 µM | A549 > 100 µM | A498 > 100 µM | COLO 205 > 100 µM

O=C1Nc2ccccc2/C1=N/NC(=O)c1ccccc1O
inactive: SF-295 27.9 µM | HL-60 27.7 µM | ACHN 21.8 µM | SNB-78 99.8 µM | SF-539 41.4 µM | UACC-257 44 µM | K562 40.9 µM | SN12C 35.2 µM | EKVX 68.5 µM | NCI-H23 24.5 µM | SK-MEL-28 60.5 µM | SK-OV-3 12.1 µM | A549 55.3 µM | A498 23.5 µM | COLO 205 > 100 µM

CC1CCP(=O)(c2ccccc2)CC1 (centres undefined)
inactive: SF-295 > 100 µM | HL-60 > 100 µM | ACHN > 100 µM | SNB-78 > 100 µM | SF-539 > 100 µM | UACC-257 > 100 µM | K562 > 100 µM | SN12C > 100 µM | EKVX > 100 µM | NCI-H23 > 100 µM | SK-MEL-28 > 100 µM | SK-OV-3 > 100 µM | A549 > 100 µM | A498 > 10 µM | COLO 205 > 100 µM

CC(=O)NNc1nc(C)c(C(=O)/C=C/c2ccc(Cl)cc2)s1
inactive: SF-295 > 100 µM | HL-60 > 100 µM | ACHN > 100 µM | SNB-78 > 100 µM | SF-539 > 100 µM | UACC-257 > 100 µM | K562 > 100 µM | EKVX 57.7 µM | NCI-H23 > 100 µM | SK-MEL-28 > 100 µM | SK-OV-3 > 100 µM | A549 > 100 µM | A498 > 100 µM | COLO 205 > 100 µM

CN(C(=O)C12C3C4C1C1C2C3C41C(O)C(C)(C)C)C(C)(C)C (centres undefined)
inactive: SF-295 > 100 µM | HL-60 > 100 µM | ACHN > 100 µM | SNB-78 > 100 µM | SF-539 > 100 µM | UACC-257 > 100 µM | K562 > 100 µM | SN12C > 100 µM | EKVX > 100 µM | NCI-H23 > 100 µM | SK-MEL-28 > 100 µM | SK-OV-3 > 100 µM | A549 > 100 µM | A498 > 100 µM | COLO 205 > 100 µM

CCOC(=O)N1C(=O)C2C3C=CC(C2C1=O)C1C2C(=O)N(C(=O)OCC)C(=O)C2C31 (centres undefined)
inactive: SF-295 > 100 µM | HL-60 20.3 µM | ACHN > 100 µM | SNB-78 > 100 µM | SF-539 > 100 µM | UACC-257 > 100 µM | K562 > 100 µM | SN12C > 100 µM | EKVX > 100 µM | NCI-H23 > 100 µM | SK-MEL-28 > 100 µM | SK-OV-3 > 100 µM | A549 > 100 µM | A498 > 100 µM | COLO 205 98.9 µM

COc1cccc2c1[C@H]1OC(=O)NC1CCCCC2 (some centres undefined)
inactive: SF-295 > 100 µM | HL-60 > 100 µM | ACHN > 100 µM | SNB-78 > 100 µM | SF-539 > 100 µM | UACC-257 > 100 µM | K562 > 100 µM | SN12C > 100 µM | EKVX > 100 µM | NCI-H23 > 100 µM | SK-MEL-28 > 100 µM | SK-OV-3 > 100 µM | A549 > 100 µM | A498 > 100 µM | COLO 205 > 100 µM
